Laboratory results: patent US20110070232A1, “Combination Therapy with an Antitumor Alkaloid” (Pharma Mar, S.A., priority 2008, published 2011)
pIC50: −log10 of the molar value. ≈ marks a conversion by molar mass, not a printed value. Where two headings read alike, the source gives them in different places.

Columns and labels:
[1] = test system: AGS human gastric carcinoma cell line; experiment: IC50 determination, MTS assay, 72 h (Example 1); format: cell-based; conditions: 72 hours of drug exposure
Summary of the method: (§1)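 Cells are seeded at 10,000 per well and allowed to attach for 24 h, then exposed to compound for 72 h. Viability is read by MTS/PMS, 4 h at 37 °C, with OD at 490 nm, and referenced to a time-0 plate. IC50 is averaged from two to four assays.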

[2] = test system: HGC-27 human gastric carcinoma cell line; experiment: IC50 determination, MTS assay, 72 h (Example 1); format: cell-based; conditions: 72 hours of drug exposure
Summary of the method: as §1

[3] = test system: Hs746T human gastric carcinoma cell line; experiment: IC50 determination, MTS assay, 72 h (Example 1); format: cell-based; conditions: 72 hours of drug exposure
Summary of the method: as §1

[4] = test system: Hs746T tumors; format: in vivo, mice; conditions: mg/kg/day: PM00104 0.90 IV, cisplatin 5 IP, paclitaxel 10 IP
Excerpt: Female athymic nude mice (Harlan Sprague Dawley, Madison, Wis.) were utilized for all experiments. Animals were housed in ventilated rack caging with food and water ad libitum. The mice were acclimated for at least 5 days prior to tumor implantation with a tumor cell suspension. The Vehicle Control group contained 11 mice, groups 2-4 contained 7 mice and the rest of groups contained 8 mice.
The tumor model used in these studies was Hs746T cell line, which was obtained from the ATCC (Manassas, Va.).
Hs746T cells were grown in DMEM supplemented with 10% FBS, 1.5 g/L sodium bicarbonate, 4.5 g/L glucose, and 4 mM L-glutamine. Each animal was implanted SC on the right flank, using a trochar, with 5×10^6 Hs746T cells, from in vitro passage 18, in a 0.2 mL suspension of 50% Matrigel and 50% serum free medium, without antibiotics. Bacterial cultures were performed on aliquots of the cells prepared for implantation.
Treatments were initiated on DPI 16.
Tumor size measurements were recorded twice weekly from the treatment initiation until the termination of the study.
Mean, standard deviation and standard error of the mean were determined for tumor volume for all animal groups at all assessments. Student's t test was performed on tumor volumes at each measurement day, including at the end of the study, to determine whether there were any statistically significant differences between combination treatment groups and single monotherapy treatment groups.

[5] = test system: A-549 (lung cancer) cell line; experiment: IC50 determination, MIT (tetrazolium) assay, 72 h (Example 18); format: cell-based, human
Experimental: (§2) Before plating, cell cultures were trypsinized and cell number estimated using an automated flow cytometer.
(§3) Cells were harvested and seeded in 96 well microtiter plates at the appropriate cell density (5,000-10,000 cells) in 150 μL of media and incubated for 24 hours to allow the cells to attach before drug addition.
(§4) After the incubation period (72 hours), 50 μL of MIT solution was added to each microtiter well and incubated for further 8 hours at 37° C. The culture medium was then removed and 50 μl, of DMSO were added to dissolve the MIT crystals. Optical densities were read at 540 nm on spectrophotometer microplate reader.
(§5) IC50 values were calculated from an average of two to four assays for each of the test agents.

[6] = test system: NCI-H460 (lung cancer) cell line; experiment: as above; format: cell-based, human; conditions: NCI-H460, 72 hours of drug exposure
Experimental: as §2, §3, §4, §5

[7] = test system: MCF-7 (breast cancer) cell line; experiment: as above; format: cell-based; conditions: Homo sapiens, MCF7; MCF-7, 72 hours of drug exposure
Experimental: as §2, §3, §4, §5

[8] = test system: MDA-MB-231 (breast cancer) cell line; experiment: as above; format: cell-based; conditions: Homo sapiens; MDA-MB-231, 72 hours of drug exposure
Experimental: as §2, §3, §4, §5

Row | SMILES | % Inhibition ([4]; day 16) | % T/C on day ([4]; day 16) | % Inhibition ([4]; day 20) | % T/C on day ([4]; day 20) | % Inhibition ([4]; day 23) | % T/C on day ([4]; day 23) | % Inhibition ([4]; day 26) | % T/C on day ([4]; day 26) | % Inhibition ([4]; day 29) | % T/C on day ([4]; day 29) | % Inhibition ([4]; day 33) | % T/C on day ([4]; day 33) | % Inhibition ([4]; day 36) | % T/C on day ([4]; day 36) | pIC50 ([5]; Homo sapiens, A549, 72 h) | pIC50 ([6]; Homo sapiens) | pIC50 [7] | pIC50 [8] | IC50 ([1]; Homo sapiens, read-out: IC50) | IC50 ([2]; Homo sapiens, read-out: IC50) | further results
1 | N.N.[Cl][Pt][Cl] [Cisplatin, cisplatin] | 3.2% | 96.8% | 39.5% | 60.5% | 48.3% | 51.7% | 55.8% | 44.2% | 56.7% | 43.3% | 53.3% | 46.7% | 53.7% | 46.3% |  |  |  |  |  |  | IC50 [1]: 25.5 µg/mL; IC50 [2]: 25.6 µg/mL; IC50 [3]: 39.2 µg/mL; pIC50 ([5]; A-549, 72 hours of drug exposure): 4.30; pIC50 [6]: 4.60
2 | CC(=O)O[C@H]1C(=O)[C@@]2(C)[C@H]([C@H](OC(=O)c3ccccc3)[C@]3(O)C[C@H](OC(=O)[C@H](O)[C@@H](NC(=O)c4ccccc4)c4ccccc4)C(C)=C1C3(C)C)[C@]1(OC(C)=O)CO[C@@H]1C[C@@H]2O [paclitaxel] | 3.6% | 96.4% | 36.7% | 63.3% | 52.3% | 47.7% | 65.3% |  | 78.6% | 21.4% | 76.8% | 23.2% | 69.9% | 30.1% | 7.33 | 7.92 | 7.15 | 8.22 |  |  | 
3 | O=c1[nH]cc(F)c(=O)[nH]1 [5-FU, 5-fluorouracil] |  |  |  |  |  |  |  |  |  |  |  |  |  |  |  |  |  |  | 0.532 µg/mL (≈ 4.09 µM) | 0.434 µg/mL (≈ 3.34 µM) | IC50 ([3]; Homo sapiens, read-out: IC50): 5.46 µg/mL (≈ 42 µM)
4 | COc1c(C)cc2c(c1O)[C@@H]1[C@@H]3Cc4c(OC(C)=O)c(C)c5c(c4[C@H](CNC(=O)/C=C/c4cccc(C(F)(F)F)c4)N3[C@@H](O)[C@H](C2)N1C)OCO5 [PM00104] | 2.0% | 98.0% | 34.4% | 65.6% | 49.7% | 50.3% | 57.2% | 42.8% | 59.1% | 40.9% | 49.8% | 50.2% | 31.4% | 68.6% | 8.14 | 8.14 | 9.00 | 8.22 | 0.00521 µg/mL (≈ 0.00734 µM) | 0.00371 µg/mL (≈ 0.00523 µM) | IC50 ([3]; Homo sapiens, read-out: IC50): 0.00534 µg/mL (≈ 0.00752 µM)
5 | Nc1ccn([C@@H]2O[C@H](CO)[C@@H](O)C2(F)F)c(=O)n1 [Gemcitabine, gemcitabine] |  |  |  |  |  |  |  |  |  |  |  |  |  |  | 9.30 | 9.00 | 8.89 | 7.62 |  |  | 
